Legend:
1K1C rats = assay: Kidney ischemia-reperfusion injury, one-kidney one-clip (1K1C) model, fractional excretion of sodium; type: in vivo
Description: Rats were individually housed in a modified cage that was equipped with a raised mesh bottom to separate the fecal product from urine. Before the test, all animals were withheld from food and water overnight. In the morning of the test, normal saline (i.e., 0.9% sodium chloride) was given via oral gavage at […] (Lipschitz, W. L. Hadidian, Z. & Kerpcar, A.: Bioassay of diuretics., J. Pharmacol. Exp. Ther., 79: 97-110, 1943). Samples of blood and urine were collected (standard procedures) at time points (1 and/or 5 hrs after fluid intake) from animals, centrifuged, and kept at 4 degrees until analysis for factors that reflect renal functions. Sodium and creatinine levels were determined by Quality Clinical Labs, Inc. (Mountain View, Calif.). Sodium concentrations were determined by ion selective electrode (standard procedures). Creatinine levels were determined by the alkaline picrated (Jaffe) reaction as described (Liobat-Estelles, M., Sevillano-Cabeja, A. & Campines-Falco, P.: Kinetic chemometric studies of the determination of creatinine using the Jaffe reaction. Part I: kinetics of the reaction; analytical conclusion. Analyst, 11: 597-602, 1989). Fractional excretion of sodium (FENa+), a parameter for ion-handling by the kidney, was calculated, using the following equation: =UNa×Pcr/PNa×Ucr, where UNa is the concentration of sodium in urine; Pcr is the plasma concentration of creatinine; PNa is the […]; and Ucr is the concentration of creatinine in the urine.
After the data for the calculation of basal levels of FENa+ was obtained (Table 16), rats were anesthetized with pentobarbital (65 mg/kg, i.p.). The abdominal region was shaved with a safety razor and sterilized with povidone iodine solution. A midline incision was made and the right kidney was exposed. The right renal pedicle and right urether were both ligated twice with 4-0 sutures and cut between the ligations. The right kidney was then removed. 7 days later, these rats, after another overnight food-water deprivation, were randomly assigned into 3 groups and orally given either Compound 62 (50 mg/kg, at the volume of 1 ml/kg,p.o.) or its vehicle (i.e., 96% of 0.5% CMC and 4 of 20% Tween 80, at the volume of 1 ml/kg, p.o.) 1 hr before kidney ischemia was produced. Positive controls were performed using quercetin (30 mg/kg, i.p.) given 2 hrs before ischemia (Kahraman, A., Erkasap, N., Serteser, M. & Koken, T.: Protective effect of quercetin on renal ischemia/reperfusion injury in rats. J. Nephrol., 16: 219-224, 2003). Animals were then anesthetized and had their left kidneys exposed after opening of their abdominal cavities. A non-traumatic vascular clamp was applied to the left renal pedicle (the ischemia phase), which was released 45 min later (the reperfusion phase). Lipschitz test was then conducted to measure ion-handling capabilities. Normal saline was orally administered at […] as soon as the vascular clamp was released. 60- and 300-min after reperfusion, plasma and urine samples were obtained.

STZ-diabetic rats = assay: Diabetic neuropathy, mechanical allodynia (von Frey filaments); type: in vivo, rat; settings: 25 mg/kg, p.o., bid, x49 d
Description: Adult male Sprague Dawley (SD) rats weighing 250-300 gm (Charles River Laboratories, San Diego, Calif.) were used. The animal room was lighted artificially at a 12-hr light-dark cycle (from 7:00 A.M. to 7:00 P.M.) with water and food supply ad libitum. Animals were allocated randomly into groups. Forty-nine (49) days prior to the behavioral tests, rats received a bolus injection of STZ (75 mg/kg, i.v.). STZ was dissolved in 0.1 M sodium citrate buffer, pH 4.5 solution, at the concentration of 75 mg/ml. To ensure the development of hyperglycemia, their non-fasted levels of glucose in whole blood, obtained via tail veins, were evaluated, using a glocometer (Accucheck®, Roche Diagnostics, Palo Alto, Calif.), once a week. Animals failing to show hyperglycemic conditions (i.e., whole blood glucose>120 mg/dL) were removed from the study. Diabetic rats were treated orally with Compound 62 (5 mg/kg or 25 mg/kg, both bid) or vehicle (1 ml/kg, bid), starting the date of STZ-injection. Compound 62 was dissolved in vehicle, which is composed of 96% of 0.5% CMC and 4% of 10% Tween 80. As a control, a group of naive rats received oral Compound 62 (25 mg/kg, bid) or vehicle (1 ml/kg, bid) treatment. Each group had >12 rats. […]

[1] = 1K1C rats, Compound 62 50 mg/kg p.o. 1 hr before ischemia, quercetin 30 mg/kg i.p. 2 hrs before, 45 min ischemia, mean ± SEM

## CC(C)(C)/[N+]([O-])=C/c1ccc(S(C)(=O)=O)cc1 [Compound 62, N-tert-Butyl-C-[4-(methanesulfonyl)phenyl]nitrone]
1K1C rats; 1K1C rats, 50 mg/kg p.o., acutely dosed
  effect on FENa+ compared with the vehicle treatment group (in words): significantly enhanced FENa+ 5-hr after reperfusion
1K1C rats; [1]
  1-hr post-ischemic FENa+ (%): 0.52 ± 0.29%
  5-hr post-ischemic FENa+ (%): 2.52 ± 0.5%
1K1C rats; rats before 1K1C modeling, group baseline, mean ± SEM
  FENa+ (%) pre-surgery (basal) levels: 1.71 ± 0.36%
STZ-diabetic rats
  effect on PWT / reversal of allodynia vs vehicle (in words): significantly enhanced the PWT
STZ-diabetic rats; mean ± SEM
  PWT (von Frey), mechanical allodynia: 6.08 ± 0.94 GRAMS

— patent US20100168112A1, “2-Substituted and 4-substituted aryl nitrone compounds” (RENOVIS, INC., priority 2004, published 2010)
